From PMC7038073, “Substituted Piperazines as Novel Potential Radioprotective Agents” (Molecules, 2020)
Structures can show the parent of a compound that is named as a salt.

How the values were obtained:
[1] = WST-1 cytotoxicity test, MOLT-4; type: cell-based; conditions: human, MOLT-4 cells, 48 h, WST-1, mean ± SD of three experiments, read-out: relative viability (%) compared to untreated control; for viability at 48 h, 10 µM: MOLT-4, 10 µM; for viability at 48 h, 100 µM: MOLT-4, 100 µM
Description: (§1) In this study, the cytotoxic effects of nine new compounds (2, 3, 4, 5, 6, 7, 8, 9, 10) were tested on 10 human cell lines (nine cancer and one non-cancer cell line). The cell lines were treated with each compound at concentrations of 10 µM and 100 µM for 48 h. The proliferation capacity of the treated cells was determined by WST-1 test and compared against the proliferation rate of the untreated control cells (100%).
(§2) The cell lines Jurkat, MOLT-4, A2780, A549, HT-29, PANC-1, HeLa, MCF-7, SAOS-2, and MRC-5 (all purchased from Sigma Aldrich, Czech Republic) were included in this study. All cell lines were maintained according to the provider’s guidelines, and plated and treated in 96-well plates (500 to 30 × 10^3 cells per well). The tested compounds 2, 3, 4, 5, 6, 7, 8, 9, and 10 were dissolved in 0.1% DMSO and kept in 10 mM stock solutions. Before use, the stock solution was diluted in culture media at ratios of 1:100 and 1:1000. The studied cell lines were treated with the compounds 2, 3, 4, 5, 6, 7, 8, 9, and 10 at concentrations of 10 and 100 µM for 48 h. Control cells were tested in culture media with and without DMSO (0.1%). The cells were also treated with 1 µM doxorubicin as a cytotoxicity control.
(§3) The WST-1 (2-(4-iodophenyl)-3-(4-nitrophenyl)-5-(2,4-disulfophenyl)-2H-tetrazolium, monosodium salt) test (Roche, Mannheim, Germany) was used according to the manufacturer’s protocol to determine cell viability in all 10 cell lines 48 h after treatment with the tested compounds. The cells were analyzed in a Tecan Infinite M200 spectrometer (Tecan Group, Männedorf, Switzerland) at 440 nm.

[2] = WST-1 cytotoxicity test, SAOS-2; type: cell-based; conditions: human, SAOS-2 cells, 48 h, WST-1, mean ± SD of three experiments, read-out: relative viability (%) compared to untreated control; for viability at 48 h, 10 µM: SAOS-2, 10 µM; for viability at 48 h, 100 µM: SAOS-2, 100 µM
Description: as §1, §2, §3

[3] = WST-1 cytotoxicity test, MRC-5; type: cell-based; conditions: human, MRC-5 cells, 48 h, WST-1, mean ± SD of three experiments, read-out: relative viability (%) compared to untreated control; for viability at 48 h, 10 µM: MRC-5, 10 µM; for viability at 48 h, 100 µM: MRC-5, 100 µM
Description: as §1, §2, §3

[4] = tested on: 10 human cell lines (nine cancer and one non-cancer cell line); assay: WST-1 cytotoxicity test, statements over all cell lines; type: cell-based; conditions: 100 µM, 48 h, studied cell lines
Description: as §1, §2, §3

BALB/c mice = assay: Survival of whole-body irradiated mice; type: in vivo; conditions: female BALB/c mice; for day post-irradiation of onset of lethal effect / decline in survival: i.p. at 50% of MTD 5 min before 7.15 Gy, non-treated control 10 days; for survival at day 30 post-irradiation: n = 10, i.p. at 50% of MTD 5 min before 7.15 Gy, control 40%
Description: To estimate the radioprotective effect on whole-body irradiated mice, compounds 4 (50 mg/kg), 5 (100 mg/kg), 6 (50 mg/kg), 7 (100 mg/kg), 8 (1000 mg/kg), and 10 (325 mg/kg) were injected (intraperitoneally, i.p.) 5 min before receiving 7.15 Gy of gamma radiation. These compounds were selected based on the cytotoxicity screening in vitro, and applied at a dose corresponding to 50% of the MTD in vivo. […] The follow-up period was 30 days.
Adult female BALB/c mice (21 ± 0.8 g) were used for all experiments (Velaz a.s., Prague, Czech Rep.). All the performed methods were in accordance with NIRS Guidelines for the Care and Use of Laboratory Animals and approved by the Committee for animal rights of the Ministry of Defence of the Czech Republic no. ČJ MO 255172/2019-684800. The mice, arranged in groups of 10 animals each, received a dose of 7.15 Gy from a ^60Co gamma source (Chisotron, Chirana, Czech Republic) at a dose rate of 1.04 Gy/min. Non-irradiated and non-treated control groups were included. Their survival and health status were checked on a daily basis for 30 days.
Compounds 4 (50 mg/kg), 5 (100 mg/kg), 6 (50 mg/kg), 7 (100 mg/kg), 8 (1000 mg/kg), and 10 (325 mg/kg) were selected and administered i.p. 5 min before irradiation. The doses were prepared from 100 mg/mL stock before each experiment.

SMILES	viability at 48 h, 10 µM [1] [%]	viability at 48 h, 100 µM [1] [%]	viability at 48 h, 10 µM [2] [%]	viability at 48 h, 100 µM [2] [%]	viability at 48 h, 10 µM [3] [%]	viability at 48 h, 100 µM [3] [%]	cytotoxic effect (in words) [4]	day post-irradiation of onset of lethal effect / decline in survival (BALB/c mice) [days]	survival at day 30 post-irradiation (BALB/c mice) [%]
Cc1cc(OCC(O)CN2CCN(CCO)CC2)ccc1Cl.Cl.Cl (stereo not shown) [Compound 4, 1-(4-chloro-3-methylphenoxy)-3-(4-(2-hydroxyethyl)piperazin-1-yl)propan-2-ol dihydrochloride]	88 ± 6	92 ± 6	99 ± 6	88 ± 4	97 ± 8	93 ± 5	no significant cytotoxic effects	> 12	50
Cl.Cl.Cl.OCCN1CCN(CCCNc2ccccc2)CC1 [Compound 5, 2-(4-(3-(phenylamino)propyl)piperazin-1-yl)ethanol trihydrochloride]	93 ± 9	104 ± 7	96 ± 4	111 ± 6	98 ± 7	102 ± 8	no significant cytotoxic effects	10	30
Cl.Cl.Cl.OCCN1CCN(CCCNc2cccc3ccccc23)CC1 [Compound 6, 2-(4-(3-(naphthalen-1-ylamino)propyl)piperazin-1-yl)ethanol trihydrochloride]	90 ± 7	112 ± 4	94 ± 6	111 ± 4	91 ± 4	94 ± 2	no significant cytotoxic effects	10	20
COc1ccc(NCCCN2CCN(CCO)CC2)cc1.Cl.Cl.Cl [Compound 7, 2-(4-(3-((4-methoxyphenyl)amino)propyl)piperazin-1-yl)ethanol trihydrochloride]	93 ± 3	99 ± 3	102 ± 7	109 ± 2	100 ± 3	104 ± 3	no significant cytotoxic effects	9	0
OCCN1CCN(CC(O)CN2CCN(CCO)CC2)CC1 [Compound 8, 1.3-bis [4-(2-hydroxyethyl)piperazin-1-yl)propan-2-ol tetrahydrochloride]	106 ± 8	81 ± 6	102 ± 6	87 ± 7	95 ± 7	119 ± 16	no significant cytotoxic effects	> 12	70
Cl.Cl.OC(CNc1ccccc1)CNc1ccccc1 [Compound 9, 1,3-bis(phenylamino)propan-2-ol dihydrochloride]	103 ± 8	71 ± 4	106 ± 2	90 ± 4	102 ± 8	120 ± 16	no significant cytotoxic effects		
Cl.Cl.Cl.OCCN1CCN(CC(O)CNc2ccccc2)CC1 (stereo not shown) [Compound 10, 1-(phenylamino]-3-[4-(2-hydroxyethyl)piperazin-1-yl)propan-2-ol trihydrochloride]	112 ± 6	100 ± 4	97 ± 6	102 ± 2	102 ± 3	102 ± 8	no significant cytotoxic effects	> 12	30
